We go through 28 compounds from patent EP1953147A1, “HETEROCYCLIC COMPOUND AND MEDICINAL APPLICATION THEREOF” (priority 2005, dated 2007).

This assay concerns ΔG/SEAP/HCV E1E2. The experiment in a line: Effect of test substance on cell infection with HCV pseudotype virus (SEAP reporter assay in HepG2 cells). In kind it is cell-based. Particulars: Hepatitis C virus.

Counter-ions that a name gives are not always drawn.

Compound `O=c1c2c(c(-c3cccc(C(F)(F)F)c3)nn1-c1cc(N3CC[C@H](O)C3)ccc1C(F)(F)F)CCC2` [Example 74, 2-[5-((S)-3-hydroxy-pyrrolidin-1-yl)-2-trifluoromethyl-phenyl]-4-(3-trifluoromethyl-phenyl)-2,5,6,7-tetrahydro-cyclopenta[d]pyridazin-1-one] returned an IC50 below 100 nM.

Regarding `COc1cc(OC)cc(-c2nn(-c3cc(N4CCCC4)ccc3C(F)(F)F)c(=O)c3c2CCN3)c1` [Example 37, 4-(3,5-dimethoxy-phenyl)-6-(5-pyrrolidin-1-yl-2-trifluoromethyl-phenyl)-1,2,3,6-tetrahydro-pyrrolo[2,3-d]pyridazin-7-one], the IC50 is below 100 nM.

In turn, `COc1cc(C)cc(-c2nn(-c3cc(-c4cccnn4)ccc3C(F)(F)F)c(=O)c3c2CCN3)c1` [Example 13, 4-(3-methoxy-5-methyl-phenyl)-6-(5-pyridazin-3-yl-2-trifluoromethyl-phenyl)-1,2,3,6-tetrahydro-pyrrolo[2,3-d]pyridazin-7-one] displayed a 50% inhibitory concentration (IC50) below 100 nM.

For the compound `COc1cc(OC)cc(-c2nn(-c3cc(NCCNC(C)=O)ccc3C(F)(F)F)c(=O)c3c2CCC3)c1` [Example 117, N-(2-{3-[4-(3,5-dimethoxy-phenyl)-1-oxo-1,5,6,7-tetrahydro-cyclopenta[d]pyridazin-2-yl]-4-trifluoromethyl-phenylamino}-ethyl)-acetamide], the IC50 is below 100 nM.

Regarding `COc1cc(OC)cc(-c2nn(-c3cc(NCCCC(=O)O)ccc3C(F)(F)F)c(=O)c3c2CCC3)c1` [Example 151, 4-{3-[4-(3,5-dimethoxy-phenyl)-1-oxo-1,5,6,7-tetrahydro-cyclopenta[d]pyridazin-2-yl]-4-trifluoromethyl-phenylamino}-butyric acid], the concentration for half-maximal inhibition (IC50) is below 100 nM.

In turn, `COc1cc(OC)cc(-c2nn(-c3cc(N4CC[C@H](O)C4)ccc3C(F)(F)F)c(=O)c3c2CCCN3CCO)c1` [Example 1-39, 5-(3,5-dimethoxy-phenyl)-1-(2-hydroxy-ethyl)-7-[5-((S)-3-hydroxy-pyrrolidin-1-yl)-2-trifluoromethylphenyl]-1,3,4,7-tetrahydro-2H-pyrido[2,3-d]pyridazin-8-one] showed an IC50 below 100 nM.

For `COc1cc(OC)cc(-c2nn(-c3cc(N4CC[C@H](O)C4)ccc3C(F)(F)F)c(=O)c3c2CCN3CC(=O)NCCNC(C)=O)c1` [Example 39, N-(2-acetylamino-ethyl)-2-{4-(3,5-dimethoxy-phenyl)-6-[5-((S)-3-hydroxy-pyrrolidin-1-yl)-2-trifluoromethyl-phenyl]-7-oxo-2,3,6,7-tetrahydro-pyrrolo[2,3-d]pyridazin-1-yl}-acetamide], the half-maximal inhibitory concentration (IC50) is below 100 nM.

Regarding `COc1cc(OC)cc(-c2nn(-c3ccccc3C(F)(F)F)c(=O)c3c2CCN3)c1` [Example 32, 4-(3,5-dimethoxy-phenyl)-6-(2-trifluoromethylphenyl)-1,2,3,6-tetrahydro-pyrrolo[2,3-d]pyridazin-7-one], the IC50 fell in the range of 100 to 10000 nM.

For `COc1cc(OC)cc(-c2nn(-c3cc(OCCCO)ccc3C(F)(F)F)c(=O)c3c2CCC3)c1` [Example 1-13, 4-(3,5-dimethoxy-phenyl)-2-[5-(3-hydroxy-propoxy)-2-trifluoromethyl-phenyl]-2,5,6,7-tetrahydro-cyclopenta[d]pyridazin-1-one], the IC50 is below 100 nM.

The compound `COc1cc(O)cc(-c2nn(-c3cc(N4CC(CO)C4)ccc3C(F)(F)F)c(=O)c3c2CCN3CCO)c1` [Example 1-44, 1-(2-hydroxy-ethyl)-4-(3-hydroxy-5-methoxyphenyl)-6-[5-(3-hydroxymethyl-azetidin-1-yl)-2-trifluoromethyl-phenyl]-1,2,3,6-tetrahydro-pyrrolo[2,3-d]pyridazin-7-one] came in with an IC50 below 100 nM.

Compound `NC(=O)c1cccc(-c2nn(-c3cc(N4CC[C@H](O)C4)ccc3C(F)(F)F)c(=O)c3c2CCC3)c1` [Example 98, 3-{3-[5-((S)-3-hydroxy-pyrrolidin-1-yl)-2-trifluoromethyl-phenyl]-4-oxo-4,5,6,7-tetrahydro-3H-cyclopenta[d]pyridazin-1-yl}-benzamide] registered an IC50 of 100 to 10000 nM.

`COc1cc(OC)cc(-c2nn(-c3cc(NC(C)=O)ccc3C(F)(F)F)c(=O)c3c2CCC3)c1` [Example 159, N-{3-[4-(3,5-dimethoxy-phenyl)-1-oxo-1,5,6,7-tetrahydro-cyclopenta[d]pyridazin-2-yl]-4-trifluoromethyl-phenyl}-acetamide] yielded an IC50 below 100 nM.

The compound `COc1cc(OC)cc(-c2nn(-c3ccccc3Cl)c(=O)c3c2CCC3)c1` [Example 86, 2-(2-chloro-phenyl)-4-(3,5-dimethoxy-phenyl)-2,5,6,7-tetrahydro-cyclopenta[d]pyridazin-1-one] gave an IC50 of 100 to 10000 nM.

`COC(=O)c1ccc(C(F)(F)F)c(-n2nc(-c3cc(OC)cc(OC)c3)c3c(c2=O)CCC3)c1` [Example 1-9, methyl 3-[4-(3,5-dimethoxy-phenyl)-1-oxo-1,5,6,7-tetrahydro-cyclopenta[d]pyridazin-2-yl]-4-trifluoromethyl-benzoate]: the half-maximal inhibitory concentration (IC50) is below 100 nM.

`COc1cc(OC)cc(-c2nn(-c3ccc(Br)cc3C(F)(F)F)c(=O)c3c2CCC3)c1` [Example 106, 2-(4-bromo-2-trifluoromethyl-phenyl)-4-(3,5-dimethoxy-phenyl)-2,5,6,7-tetrahydro-cyclopenta[d]pyridazin-1-one] yielded an IC50 of 100 to 10000 nM.

With `CCN1CCc2c(-c3cc(OC)cc(OC)c3)nn(-c3cc(N4CC[C@H](O)C4)ccc3C(F)(F)F)c(=O)c21` [Example 55, 4-(3,5-dimethoxy-phenyl)-1-ethyl-6-[5-((S)-3-hydroxy-pyrrolidin-1-yl)-2-trifluoromethyl-phenyl]-1,2,3,6-tetrahydro-pyrrolo[2,3-d]pyridazin-7-one], the IC50 is below 100 nM.

For `COc1cc(OC)cc(-c2nn(-c3cc(N4CC[C@H](O)C4)ccc3C(F)(F)F)c(=O)c3c2CCN3Cc2ccccc2)c1` [Example 102, 1-benzyl-4-(3,5-dimethoxy-phenyl)-6-[5-((S)-3-hydroxy-pyrrolidin-1-yl)-2-trifluoromethyl-phenyl]-1,2,3,6-tetrahydro-pyrrolo[2,3-d]pyridazin-7-one], the concentration for half-maximal inhibition (IC50) is below 100 nM.

Consider `COCCNC(=O)CN1CCc2c(-c3cc(OC)cc(OC)c3)nn(-c3cc(N4CC[C@H](O)C4)ccc3C(F)(F)F)c(=O)c21` [Example 36, 2-{4-(3,5-dimethoxy-phenyl)-6-[5-((S)-3-hydroxy-pyrrolidin-1-yl)-2-trifluoromethyl-phenyl]-7-oxo-2,3,6,7-tetrahydro-pyrrolo[2,3-d]pyridazin-1-yl}-N-(2-methoxy-ethyl)-acetamide], for which the IC50 is below 100 nM.

The compound `CCc1ccc(C(F)(F)F)c(-n2nc(-c3cc(OC)cc(OC)c3)c3c(c2=O)CCC3)c1` [Example 89, 4-(3,5-dimethoxy-phenyl)-2-(5-ethyl-2-trifluoromethyl-phenyl)-2,5,6,7-tetrahydro-cyclopenta[d]pyridazin-1-one] gave an IC50 below 100 nM.

In turn, `COc1cc(OC)cc(-c2nn(-c3cc(NCCCN)ccc3C(F)(F)F)c(=O)c3c2CCC3)c1` [Example 127, 2-[5-(3-amino-propylamino)-2-trifluoromethylphenyl]-4-(3,5-dimethoxy-phenyl)-2,5,6,7-tetrahydro-cyclopenta[d]pyridazin-1-one hydrochloride] showed an IC50 below 100 nM.

Take `COc1cc(OC)cc(-c2nn(-c3cc(F)ccc3C(F)(F)F)c(=O)c3c2CCN3)c1` [Example 50, 4-(3,5-dimethoxy-phenyl)-6-(5-fluoro-2-trifluoromethyl-phenyl)-1,2,3,6-tetrahydro-pyrrolo[2,3-d]pyridazin-7-one]: the IC50 was in the range of 100 to 10000 nM.

As to `O=c1c2c(c(-c3cccc(Cl)c3)nn1-c1cc(N3CC[C@H](O)C3)ccc1C(F)(F)F)CCC2` [Example 72, 4-(3-chloro-phenyl)-2-[5-((S)-3-hydroxy-pyrrolidin-1-yl)-2-trifluoromethyl-phenyl]-2,5,6,7-tetrahydro-cyclopenta[d]pyridazin-1-one], the IC50 is below 100 nM.

In turn, `COc1cc(OC)cc(-c2nn(-c3cc(CN(C)C)ccc3C(F)(F)F)c(=O)c3c2CCC3)c1` [Example 160, 4-(3,5-dimethoxy-phenyl)-2-(5-dimethylaminomethyl-2-trifluoromethyl-phenyl)-2,5,6,7-tetrahydro-cyclopenta[d]pyridazin-1-one hydrochloride] registered an IC50 of 100 to 10000 nM.

In turn, `COc1cc(OC)cc(-c2nn(-c3cccc(N4CC[C@H](O)C4)n3)c(=O)c3c2CCC3)c1` [Example 1-7, 4-(3,5-dimethoxy-phenyl)-2-[6-((S)-3-hydroxy-pyrrolidin-1-yl)-pyridin-2-yl]-2,5,6,7-tetrahydro-cyclopenta[d]pyridazin-1-one] had an IC50 of 100 to 10000 nM.

`COc1cc(OC)cc(-c2nn(-c3ccccc3C(F)(F)F)c(=O)c3c2CCC3)c1` [Example 107, 4-(3,5-dimethoxy-phenyl)-2-(2-trifluoromethylphenyl)-2,5,6,7-tetrahydro-cyclopenta[d]pyridazin-1-one] gave an IC50 of 100 to 10000 nM.

The compound `COc1cc(OC)cc(-c2nn(-c3cc(NCCC(=O)O)ccc3C(F)(F)F)c(=O)c3c2CCC3)c1` [Example 122, 3-{3-[4-(3,5-dimethoxy-phenyl)-1-oxo-1,5,6,7-tetrahydro-cyclopenta[d]pyridazin-2-yl]-4-trifluoromethyl-phenylamino}-propionic acid] came in with a 50% inhibitory concentration (IC50) below 100 nM.

Turning to `COc1cc(OC)cc(-c2nn(-c3cc(NCCC(N)=O)ccc3C(F)(F)F)c(=O)c3c2CCC3)c1` [Example 142, 3-{3-[4-(3,5-dimethoxy-phenyl)-1-oxo-1,5,6,7-tetrahydro-cyclopenta[d]pyridazin-2-yl]-4-trifluoromethyl-phenylamino}-propionamide], the concentration for half-maximal inhibition (IC50) is below 100 nM.

Consider `COc1cc(OC)cc(-c2nn(-c3cc(N4CC[C@H](O)C4)ccc3C(F)(F)F)c(=O)c3c2CCN3CC(=O)N2CCN(C(C)=O)CC2)c1` [Example 41, 1-[2-(4-acetyl-piperazin-1-yl)-2-oxo-ethyl]-4-(3,5-dimethoxy-phenyl)-6-[5-((S)-3-hydroxy-pyrrolidin-1-yl)-2-trifluoromethyl-phenyl]-1,2,3,6-tetrahydro-pyrrolo[2,3-d]pyridazin-7-one], for which the IC50 was below 100 nM.

By IC50 is commonly meant the concentration that inhibits the measured activity by half.
